# Where “and” joins values, the source holds several entries; their conditions need not be identical. Equal values may be shown once. Read-outs that look alike come from different tables or passages of the source.
# Legend:
# [1] = tested on: wheat plants; experiment: Foliar administration and thermal imaging of leaf temperature, wheat; type: in vivo, Triticum aestivum
# Protocol: (§1) Thermal imaging was carried out as described ([Yang et al., 2016]). An assessment of the efficacy of ABA and CCPs was conducted by using 35-day-old Arabidopsis and 30-day-old wheat plants. Stock solutions (10 mM) of CCPs and ABA dissolved in dimethyl sulfoxide (DMSO) were diluted to the respective ligand concentrations (10, 30, 100 µM) in water containing 0.01% (v/v) Tween 20. Aqueous Tween 20 solutions supplemented with 0.1%, 0.3%, and 1% DMSO served for mock treatments. The solutions were sprayed onto the leaf surface until the run-off of droplets. One day after application (unless otherwise indicated), thermal imaging was conducted using the InfraTec instrument (IR-TCM 384, InfraTec, Dresden, Germany). The leaf temperature of Arabidopsis was determined as the average temperature of all leaves. The leaf temperature of wheat was determined as described ([Yang et al., 2019]).
# [2] = tested on: Arabidopsis plants; parameters: method as in Yang et al., 2019; settings: ref Yang et al., 2019, cited from earlier work
# [3] = tested on: Arabidopsis plants; experiment: Progressive drought experiment: growth, water consumption, WUE; type: in vivo, Arabidopsis thaliana; settings: 30 µM
# Protocol: The progressive drought experiment was performed as described ([Yang et al., 2016]). Briefly, 18-day-old Arabidopsis plantlets grown under well-watered and short-day conditions (8 h light with 150 µmol m^-2 s^-1 PAR, 22°C, 50% relative humidity, and 16 h dark with 17°C, 60% relative humidity) were transferred to 0.2 L pots loaded with water-saturated soil (33.4 ± 0.4 g dry soil with 148 ± 2 g water). At the onset of the progressive drought (day 0), water was withheld, and a sealed soil surface prevented evaporation. A slowly increasing water deficit was achieved by transpirational water loss from plants. The progressive drought experiment lasted for eight weeks until mock-treated plants had consumed all the plant-usable water. […] For measuring growth and water consumption, leaf rosettes were regularly photographed, and the pots were weighed. The projected leaf area of Arabidopsis rosettes was analyzed by using Photoshop Elements software (Adobe, San Jose, USA). The consumed water was calculated as the difference in pot weight between day 0 and the designated days. The retained water was expressed as the difference between the pot weight at the end of the drought (day 57) and the weight of the loaded dry soil. Above-ground material was harvested at day 57, and the biomass was determined after drying the material for three days at 60°C to achieve constant weight. WUE was calculated as the ratio of above-ground dry biomass to consumed water. The data for the mock- and ABA-treated plants in the progressive drought experiment were already published ([Yang et al., 2019]).
# [4] = tested on: Arabidopsis plants; experiment: Foliar administration and thermal imaging of leaf temperature (transpiration), Arabidopsis; type: in vivo, Arabidopsis thaliana
# Protocol: as §1
# [5] = molecular target: T1, RCAR1-ABI2 (Arabidopsis thaliana, UniProt O04719+Q84MC7); experiment: In vitro phosphatase assay, ABI2 with RCAR1; type: biochemical
# T1 construct: 6xHis (N); made in house; host or cells: Escherichia coli BL21
# T1 sequence (Q84MC7 1-187): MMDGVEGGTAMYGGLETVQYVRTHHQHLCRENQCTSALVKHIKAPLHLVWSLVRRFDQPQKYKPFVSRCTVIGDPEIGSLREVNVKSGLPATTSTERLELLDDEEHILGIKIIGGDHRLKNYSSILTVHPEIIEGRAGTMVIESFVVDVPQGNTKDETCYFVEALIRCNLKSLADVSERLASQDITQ
# T1 sequence (O04719 1-423): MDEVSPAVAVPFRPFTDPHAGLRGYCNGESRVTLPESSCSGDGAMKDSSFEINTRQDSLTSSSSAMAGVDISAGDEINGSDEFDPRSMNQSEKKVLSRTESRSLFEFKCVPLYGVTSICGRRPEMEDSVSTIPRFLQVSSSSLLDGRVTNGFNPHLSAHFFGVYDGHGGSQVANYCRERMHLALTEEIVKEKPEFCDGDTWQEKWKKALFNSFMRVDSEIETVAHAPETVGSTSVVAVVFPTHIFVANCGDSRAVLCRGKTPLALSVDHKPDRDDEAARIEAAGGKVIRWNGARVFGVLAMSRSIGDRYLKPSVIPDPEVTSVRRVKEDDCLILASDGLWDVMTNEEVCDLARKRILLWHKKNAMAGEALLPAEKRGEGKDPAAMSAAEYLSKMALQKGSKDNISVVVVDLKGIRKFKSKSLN
# Protocol: (§2) Expression, purification, and analysis of RCAR and PP2C proteins were performed essentially as described ([Ruschhaupt et al., 2019]). Briefly, the ABA receptors RCAR1, RACR8, and RCAR11 were expressed with an aminoterminal histidine tag using the pSEVA431_LII_6xHIS::RCAR1/RCAR8/RCAR11. ABA coreceptors were expressed as histidine-tagged fusions with the maltose-binding protein using the pSEVA431_LII_6xHIS::MBP::ABI2/HAB1. All constructs were transformed and expressed in Escherichia coli strain BL21 and purified to homogeneity according to supplier’s instruction (GE Healthcare, Chicago, USA). The receptor assay was performed with 100 nM PP2C and a two-fold molar excess of RCAR. Values are means ± SD of three replicates. […] The maximum inhibition was set to 100% in the figures. The phosphatase activity was measured using 4-methylumbelliferyl-phosphate as a substrate ([Meinhard and Grill, 2001]). The increase in fluorescence was recorded over 25 min with excitation and emission wavelengths at 360 and 460 nm, respectively, using a Synergy 2 plate reader (Bio-Tec, Winooski, USA).
# [6] = tested on: ABI2 with RCARs; experiment: In vitro receptor assay, ABI2 in the presence of RCAR1, RCAR8 or RCAR11; type: biochemical, Arabidopsis thaliana
# Protocol: as §2
# [7] = tested on: HAB1 with RCARs; experiment: In vitro receptor assay, HAB1 in the presence of RCARs; type: biochemical, Arabidopsis thaliana; settings: HAB1, in the presence of RCARs and saturating ABA levels (1 mM)
# Protocol: as §2
# [8] = tested on: RCAR11-ABI2; experiment: Yeast ABA signal pathway LUC reporter, RCAR11-ABI2; type: cell-based, Arabidopsis thaliana
# Protocol: The yeast cultivation and the life luciferase assay were performed as described ([Ruschhaupt et al., 2019]). Briefly, the reporter yeast expressing an ABA-dependent luciferase gene (LUC) was transformed with different combinations of ABA signaling components as indicated. Golden gate cloning ([Binder et al., 2014]) was used to construct pYEAST_LII_5‐6_CEN_URA vector with TDH3 promoter and TDH1 terminator (tTDH1), pYEAST_LII_1‐2_CEN_LEU vector with GK1 promoter and tTDH1, and pYEAST_LII_3‐4_CEN_TRP with the GAL1 promoter (pGAL1) and tTDH1 to express RCARs, PP2Cs, and OST1 (SnRK2.6), respectively ([Ruschhaupt et al., 2019]). The expression of ABF2 in yeast relies on a modified pGREG503 vector, in which pGAL1 ([Jansen et al., 2005]) was replaced by the ADH1 promoter.
# Colonies of freshly transformed cells were inoculated in 0.5 mL supplemented synthetic dextrose (SD) medium and incubated at 30°C in a gyratory shaker (Thermoshake-THO500, Gerhardt, Königswinter, Germany) at 200 rpm for 16-18 h. After overnight growth, the cells were harvested and washed in SD medium followed by inoculation in SD medium containing 2% galactose for induction of SnRK2 kinases under the control of the GAL1 promoter and supplementation with ligands at indicated concentrations, to an OD600 of 0.2 in flat-bottom 96-well plates (CytoOne, Starlab, Hamburg, Germany). Yeast cultures were incubated at 30°C and 200 rpm for 16-18 h before determination of LUC activity and cell density. Light emission of yeasts was detected in a HIDEX plate luminometer (HIDEX, Turku, Finland) after injection of 100 µL freshly prepared luciferin substrate (1 mM D-luciferin, Promega) provided in 100 mM citric acid, pH 3 ([Leskinen et al., 2003]) for 5 s and was corrected for background. The LUC activity was normalized to the cell density (OD600) measured in 96-well flat plates (Sarstedt, Nümbrecht, Germany). LUC activity is given as the ratio of light emission to OD600 in counts per second.
# [9] = tested on: Arabidopsis aba2-1 protoplasts; experiment: Transient ABA response in Arabidopsis protoplasts (pRD29B::LUC, RCAR11 and ABI2 effectors); type: cell-based, Arabidopsis thaliana; settings: aba2-1 protoplasts, 18 h ligand exposure
# Protocol: Preparation of Arabidopsis protoplasts, transfection of the effector DNA, and analysis of LUC activity were performed as described ([Tischer et al., 2017]). In essence, 10^5 mesophyll protoplasts from leaves of the ABA deficient mutant aba2-1 ([Schwartz et al., 1997]) were transfected with 4 µg DNA of the pRD29B::LUC construct as an ABA-responsive reporter and 3 µg of p35S::GUS (β-glucuronidase reporter gene) expression cassette as an internal control for normalization. In addition, 3 µg p35S::RCAR11 or the empty vector with the same expression cassette were co-expressed with 0.1 µg p35S::ABI2 effector constructs ([Tischer et al., 2017]), and the ligand-dependent induction of ABA-responsive reporter expression were assessed after incubation at 22°C. The expression of LUC and GUS was determined 18 h after transfection and ligand administration.
# [10] = tested on: pig liver esterase; experiment: De-esterification of CCPs by pig liver esterase (HPLC); type: in vitro ADME; settings: 4 nkat pig liver esterase, 2 h, 25°C
# Excerpt: (S)-ABA was purchased from CHEMOS (www.chemos.de). Other chemicals were of the highest purity available and obtained from SigmaAldrich (www.sigmaaldrich.com), ROTH (www.carlroth.com), and J. T. Baker (http://www.avantormaterials.com) unless otherwise indicated. The Arabidopsis (Arabidopsis thaliana) accession Col-0 was received from the Nottingham Arabidopsis Stock Center. The elite wheat (Triticum aestivum) cultivar, Elixer, was provided from Bayerische Landesanstalt für Landwirtschaft, Freising. ABA and CCPs were dissolved in DMSO and diluted to designated concentrations before administration. For de-esterification, 0.2 µmol CCP was treated with 4 nkat pig liver esterase (Sigma-Aldrich, Burlington, MA, USA) for 2 h at 25°C according to supplier’s instruction.
# [11] = tested on: tomato; parameters: method as in Vaidya et al., 2019; settings: ref Vaidya et al., 2019; cited from earlier work
# [12] = tested on: Arabidopsis; parameters: method as in Vaidya et al., 2019; settings: 50 µM; ref Vaidya et al., 2019; cited from earlier work
# [13] = tested on: wheat; parameters: method as in Vaidya et al., 2019; settings: ref Vaidya et al., 2019; cited from earlier work
smiles,measurement,setting,value
"CC1=CC(=O)CC(C)(C)[C@@]1(O)/C=C/C(C)=C\C(=O)O [ABA, abscisic acid]",Higher leaf temperature compared to the control,"[1]; 0.1 mM, one day after administration, averaged from six experiments",approximately 0.8 °C
same,Leaf temperature increase at 100 μM ABA,"[1]; 24 h, separate experiments run in parallel to the CCPs",0.6 ± 0.18 °C and 0.9 ± 0.19 °C and 0.6 ± 0.12 °C and 0.9 ± 0.03 °C and 0.9 ± 0.10 °C and 0.9 ± 0.07 °C
same,Growth of leaf rosettes compared to mock,"[2]; 10 µM, for six weeks",indistinguishable
same,WUE increase,[2]; 10 µM,14%
same,"Soil water retained at the end of the drought, of initial soil water","[2]; 30 µM, day 57",about 25%
same,Reduced projected leaf area,"[2]; 30 µM, within 19 days",20%
same,Growth of leaf rosettes compared to mock,[2]; 30 µM,growth reduction
same,WUE increase,[2]; 30 µM,26%
same,Daily growth reduction,[3],1%
same,Time until leaf temperature reached starting values,[4]; 10 µM,eight
same,Time of optimum of inhibited transpiration,[4]; after single administration,between two and four days after administration
same,IC50,[5],100 nM
same,Residual phosphatase activity,"[6]; ABI2, in the presence of RCARs and saturating ABA levels (1 mM)",10%
same,Residual phosphatase activity,[7],4%
same,LUC reporter induction compared to mock-treated cells,"[8]; 30 µM exogenous ligand, 16 h exposure",approximately eightfold
CCCOC(=O)/C=C(\C=C\C(O)(C(C)C)C1(C#N)CC1)CC (stereo not drawn) [CCP3],"Leaf temperature increase, activity compared to ABA","[1]; 100 μM, 24 h after administration",higher activity than ABA
same,Induction of ABA signaling compared to ABA,[9],not observed
same,Degree of ester-bond cleavage by PLE (conversion into free acid),[10],complete de-esterification
same,Growth reduction compared to the control,[3],about 60%
same,Leaf temperature increase,[3]; 24 h after the first application,highest temperature increase
same,Reduction in biomass accumulation compared to the control,[3]; day 57,60%
same,"Soil water retained at the end of the drought, of initial soil water",[3]; day 57,approximately 75%
same,Growth of leaf rosettes compared to mock,[3]; three administrations,growth reduction
same,"Leaf temperature increase, activity compared to ABA","[4]; 10, 30, 100 µM, one day after application",almost as active as the non-esterified CCP2
same,Activity and persistence of minimized transpiration compared to ABA,"[4]; single application 100 µM, recorded for 19 days",more active and persistent than ABA
same,Activity in the in vitro receptor assay after esterase treatment,[6]; pig liver esterase-treated,comparable activity as CCP2
same,Reporter activation after pig liver esterase treatment,"[8]; 30 µM, PLE-treated prior to yeast exposure",comparable to esterase-treated CCP2 and ABA
N#Cc1c(C2CC2)cc(CC(=O)NC2(C(=O)O)CCCCC2)cc1C1CC1 [Opabactin],Efficiency in controlling transpiration compared to ABA,[11],more efficient than ABA
same,Efficacy in elevating leaf temperature,[12],ABA-comparable efficacy
same,Activity in controlling transpiration compared to ABA,[13],comparable activity
